From patent publication US20150132388A1 (Druggability Technologies Holdings Limited, priority 2013, published 2015)

What was measured:
[1] = system: tamoxifen-resistant, as well as estrogen-sensitive human breast cancer (MCF-7) cell lines; settings: tamoxifen-resistant and estrogen-sensitive MCF-7 cell lines; cited from earlier work
[2] = Comparative solubility test (apparent solubility, UV-VIS); assay type: physicochemical; settings: distillated water, room temperature, 100 nm syringe filter
Method: The samples were dispersed in distillated water and the resulting dispersions were filtered by 100 nm disposable syringe filter. The active content in the filtrate was measured by UV-Vis spectrophotometry and the solubility was calculated.

[3] = cited from earlier work
PAMPA permeability = assay type: in vitro ADME; settings: both the fed and fasted state simulating conditions
Method: Reference source not found. PAMPA permeability measurements were performed as described by M. Kansi et al. (Journal of medicinal chemistry, 41, (1998) pp 1007) with modifications based on S. Bendels et al (Pharmaceutical research, 23 (2006) pp 2525). Permeability was measured in a 96-well plate assay across an artificial membrane composed of dodecane with 20% soy lecithin supported by a PVDF membrane (Millipore, USA). The receiver compartment was phosphate buffered saline (pH 7.0) supplemented with 1% sodium dodecyl sulfate. The assay was performed at room temperature; incubation time was 1-24 hours. The concentration in the receiver compartment was determined by UV-VIS spectrophotometry (Thermo Scientific Genesys S10).
The ratio of the selected complexation agents and pharmaceutically acceptable excipients (Lutrol F127 and Sodium acetate) was optimized.

[4] = immature or ovariectomized mice and rats; cited from earlier work
[5] = immature rats and ovariectomized monkeys; cited from earlier work
[6] = system: xenografts of human breast cancer MCF-7 cells; settings: cited from earlier work
[7] = intramuscular injection of 250 mg

## 7-alpha-[9-(4,4,5,5,5-penta fluoropentylsulphinyl)nonyl]estra-1,3,5-(10)-triene-3,17 beta-diol [Fulvestrant]
[1]
  Inhibition of cell growth: reversible inhibitor of the growth
[2]
  Solubility (apparent solubility): < 30 µg/mL
[3]; 250 mg intramuscularly
  Time to maximum plasma concentrations: about 7 days
[3]; in vivo
  Excretion via the feces: approximately 90%
  Renal elimination: less than 1%
[3]; [7]
  Apparent half-life: about 40 days
  Clearance (Mean±SD): 690 ± 226 mL/min
[3]; intramuscular, between study comparisons
  Bioavailability: 90-100%
[3]; once a month administration
  Accumulation: 2-3 fold
  Time to steady state: about 6 months
[3]; single dose studies, intramuscular
  Terminal half-life: about 50 days
PAMPA permeability
  PAMPA permeability: not detectable
[4]
  Agonist-type effects in uterotropic assays: no agonist-type effects
[5]
  Effect on the uterotrophic action of estradiol: blocked the uterotrophic action of estradiol
[6]; MCF-7 cells in nude mice
  Establishment of tumors from xenografts: delayed the establishment of tumors
[6]; established MCF-7 xenografts and tamoxifen-resistant breast tumor xenografts
  Growth of established xenografts: inhibited the growth
